In paper PMC6386942, “Bisoprolol, Known to Be a Selective β1-Receptor Antagonist, Differentially but Directly Suppresses IK(M) and IK(erg) in Pituitary Cells and Hippocampal Neurons” (International Journal of Molecular Sciences, 2019):
pIC50: −log10 of the molar value.

Key:
[1] = molecular target: T1, erg-mediated K+ channel (Kerg, KV11) (Rattus norvegicus, UniProt O08962); assay: whole-cell patch clamp of native IK(erg) in GH3 cells; type: cell-based
T1 construct: gene Kcnh2; native channel in pituitary GH3 cells
T1 sequence (O08962 1-1163): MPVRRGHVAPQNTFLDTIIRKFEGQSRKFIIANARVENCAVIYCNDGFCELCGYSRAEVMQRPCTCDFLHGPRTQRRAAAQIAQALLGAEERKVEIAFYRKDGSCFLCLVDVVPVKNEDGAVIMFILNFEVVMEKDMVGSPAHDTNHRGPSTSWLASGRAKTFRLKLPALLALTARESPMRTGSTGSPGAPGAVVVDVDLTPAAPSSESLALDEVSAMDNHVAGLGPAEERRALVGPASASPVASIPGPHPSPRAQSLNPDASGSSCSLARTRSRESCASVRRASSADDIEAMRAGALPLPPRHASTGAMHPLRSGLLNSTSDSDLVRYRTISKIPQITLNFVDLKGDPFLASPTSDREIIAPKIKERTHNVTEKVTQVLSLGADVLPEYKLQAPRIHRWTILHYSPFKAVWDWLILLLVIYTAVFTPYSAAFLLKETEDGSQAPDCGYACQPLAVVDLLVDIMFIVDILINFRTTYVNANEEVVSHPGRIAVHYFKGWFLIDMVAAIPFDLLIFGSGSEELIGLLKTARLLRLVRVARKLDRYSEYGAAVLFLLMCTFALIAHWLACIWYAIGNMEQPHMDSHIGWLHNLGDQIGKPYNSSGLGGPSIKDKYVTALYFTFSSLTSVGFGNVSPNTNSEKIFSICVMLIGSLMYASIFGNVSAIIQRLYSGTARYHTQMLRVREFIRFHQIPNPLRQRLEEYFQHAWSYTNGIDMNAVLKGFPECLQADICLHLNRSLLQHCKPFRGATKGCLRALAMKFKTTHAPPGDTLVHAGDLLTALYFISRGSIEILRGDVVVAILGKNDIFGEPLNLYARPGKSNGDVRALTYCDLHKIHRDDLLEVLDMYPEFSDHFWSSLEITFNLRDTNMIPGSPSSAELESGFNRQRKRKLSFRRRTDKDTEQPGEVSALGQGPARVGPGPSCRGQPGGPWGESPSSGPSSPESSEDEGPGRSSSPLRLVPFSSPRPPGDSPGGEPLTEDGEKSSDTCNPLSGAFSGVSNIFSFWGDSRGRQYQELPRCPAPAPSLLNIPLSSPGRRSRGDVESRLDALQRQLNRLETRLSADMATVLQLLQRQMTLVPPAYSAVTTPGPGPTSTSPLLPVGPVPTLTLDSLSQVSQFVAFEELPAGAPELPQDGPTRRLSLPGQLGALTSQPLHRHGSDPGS

[2] = molecular target: T2, M-type K+ (KM) channel, KCNQ2 (KV7.2)/KCNQ3 (KV7.3) (Rattus norvegicus, UniProt O88943+O88944); assay: whole-cell patch clamp of native IK(M), plus cell-attached single KM channel recordings in GH3 cells; type: cell-based
T2 construct: native channel in pituitary GH3 cells; with KCNQ3 (KV7.3)
T2 sequence (O88943 whole entry): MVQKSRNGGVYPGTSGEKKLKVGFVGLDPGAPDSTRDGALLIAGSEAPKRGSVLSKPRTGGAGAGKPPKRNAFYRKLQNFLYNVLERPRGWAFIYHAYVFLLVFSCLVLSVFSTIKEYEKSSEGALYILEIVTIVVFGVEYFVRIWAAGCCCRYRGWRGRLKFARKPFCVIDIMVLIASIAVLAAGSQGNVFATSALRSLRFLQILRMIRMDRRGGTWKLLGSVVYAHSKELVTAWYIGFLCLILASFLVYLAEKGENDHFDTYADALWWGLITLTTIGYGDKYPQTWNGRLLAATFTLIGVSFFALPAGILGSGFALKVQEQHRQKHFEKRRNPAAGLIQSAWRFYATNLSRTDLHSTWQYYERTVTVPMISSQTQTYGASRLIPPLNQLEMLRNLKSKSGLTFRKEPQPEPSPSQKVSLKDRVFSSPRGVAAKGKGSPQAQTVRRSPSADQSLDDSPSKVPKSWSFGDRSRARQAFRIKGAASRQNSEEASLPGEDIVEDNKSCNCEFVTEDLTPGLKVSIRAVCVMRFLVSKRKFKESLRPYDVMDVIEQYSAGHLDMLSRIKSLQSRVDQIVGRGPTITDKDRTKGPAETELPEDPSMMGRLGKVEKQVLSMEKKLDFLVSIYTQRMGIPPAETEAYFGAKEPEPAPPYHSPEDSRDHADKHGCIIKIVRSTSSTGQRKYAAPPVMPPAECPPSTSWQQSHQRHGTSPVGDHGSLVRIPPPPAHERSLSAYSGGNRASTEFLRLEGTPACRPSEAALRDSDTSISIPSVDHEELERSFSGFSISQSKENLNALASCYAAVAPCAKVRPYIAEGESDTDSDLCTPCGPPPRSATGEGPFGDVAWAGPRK
T2 sequence (O88944 whole entry): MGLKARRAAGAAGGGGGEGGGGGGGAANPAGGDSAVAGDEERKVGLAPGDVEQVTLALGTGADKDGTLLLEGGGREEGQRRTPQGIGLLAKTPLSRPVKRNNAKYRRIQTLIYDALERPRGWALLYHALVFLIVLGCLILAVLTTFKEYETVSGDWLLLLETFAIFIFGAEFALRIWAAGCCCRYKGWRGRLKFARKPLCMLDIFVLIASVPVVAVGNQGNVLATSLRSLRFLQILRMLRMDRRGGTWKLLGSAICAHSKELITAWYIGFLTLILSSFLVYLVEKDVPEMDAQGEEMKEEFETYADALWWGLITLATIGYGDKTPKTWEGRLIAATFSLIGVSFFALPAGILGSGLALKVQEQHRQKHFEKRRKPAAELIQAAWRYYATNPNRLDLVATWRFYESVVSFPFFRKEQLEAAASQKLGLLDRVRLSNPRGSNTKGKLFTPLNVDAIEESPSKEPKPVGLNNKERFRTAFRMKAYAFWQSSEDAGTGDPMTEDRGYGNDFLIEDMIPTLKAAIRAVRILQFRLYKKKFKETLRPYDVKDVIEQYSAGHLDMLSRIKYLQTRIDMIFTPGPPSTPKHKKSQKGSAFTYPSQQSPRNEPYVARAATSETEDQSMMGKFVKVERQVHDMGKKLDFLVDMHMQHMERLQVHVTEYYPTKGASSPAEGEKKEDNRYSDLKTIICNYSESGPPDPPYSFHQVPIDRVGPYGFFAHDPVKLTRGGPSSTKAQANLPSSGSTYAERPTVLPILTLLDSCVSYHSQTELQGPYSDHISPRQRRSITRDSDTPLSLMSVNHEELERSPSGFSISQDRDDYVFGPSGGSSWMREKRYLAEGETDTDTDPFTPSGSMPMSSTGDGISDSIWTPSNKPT

pIC50 [2]: 5.92
SMILES: CC(C)NCC(O)COc1ccc(COCCOC(C)C)cc1 (racemic) [BIS, 1-(propan-2-ylamino)-3-[4-(2-propan-2-yloxyethoxymethyl)phenoxy]propan-2-ol]
pIC50 [1]: 5.19
